Data on 32 compounds can be found in patent US8178690B2, “Compounds and methods for inhibiting the interaction of BCL proteins with binding partners” (Infinity Pharmaceuticals, Inc., priority 2006, dated 2012).

For one experiment, the target named is Bcl-2 (Homo sapiens, UniProt P10415). Nature of the experiment: Bcl-2 binding affinity analysis (fluorescence polarization binding assay). The note with it: read-out: BcI2 (Ki, Bcl-2 binding affinity). From the text: (§1) Bcl-2 and Bcl-xL binding may be determined using a variety of known methods. One such assay is a sensitive and quantitative in vitro binding assay using fluorescence polarization (FP) described by Wang, J.-L.; Zhang, Z-J.; Choksi, S.; Sjam. S.; Lu, Z.; Croce, C. M.; Alnemri, E. S.; Komgold, R.; Huang, Z. Cell permeable Bcl-2 binding peptides: a chemical approach to apoptosis induction in tumor cells. Cancer Res. 2000, 60, 1498-1502).
(§2) Bcl-2 and Bcl-xL binding affinity analysis data is presented below for various compounds of the invention.
(Fluorescence polarisation rises when a labelled molecule tumbles more slowly, as on binding a larger partner.)

For the next experiment, the target named is Bcl-xL (Homo sapiens, UniProt Q07817). Nature of the experiment: Bcl-xL binding affinity analysis (fluorescence polarization binding assay). The note with it: read-out: BcI-XI (Ki, Bcl-xL binding affinity).
Excerpt: as §1, §2

Sequence of Bcl-2 (P10415 whole entry): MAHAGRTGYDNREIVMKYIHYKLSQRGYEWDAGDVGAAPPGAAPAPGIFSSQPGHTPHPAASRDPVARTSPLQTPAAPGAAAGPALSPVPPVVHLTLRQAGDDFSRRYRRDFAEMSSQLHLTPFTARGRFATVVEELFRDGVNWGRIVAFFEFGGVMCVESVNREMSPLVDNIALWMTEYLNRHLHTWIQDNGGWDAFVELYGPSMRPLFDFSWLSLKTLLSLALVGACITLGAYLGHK
Sequence of Bcl-xL (Q07817 whole entry): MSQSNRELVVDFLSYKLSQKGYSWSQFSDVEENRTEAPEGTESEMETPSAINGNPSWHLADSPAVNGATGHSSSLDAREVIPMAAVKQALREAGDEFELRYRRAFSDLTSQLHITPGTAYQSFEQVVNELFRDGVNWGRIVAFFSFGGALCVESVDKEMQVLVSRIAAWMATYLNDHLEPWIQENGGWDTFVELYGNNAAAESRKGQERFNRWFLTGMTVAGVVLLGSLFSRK

By Ki is commonly meant the dissociation constant of the complex between target and ligand, obtained from inhibition or displacement. As to `COc1c(CN2O[C@@H](CN)[C@@H]([C@H](C)O)[C@H]2C(=O)N[C@H]2C[C@H]3C[C@@H]([C@@H]2C)C3(C)C)cccc1-c1cc(C(=O)N[C@@H](Cc2ccccn2)CN(C)C)cc(N(C)C)c1` [Compound 252], the figures for the Ki at Bcl-2 and at Bcl-xL were less than 1 nM and 1000 to 5000 nM, respectively.
In the case of `CNC(=O)c1cc(-c2cccc(CN3O[C@@H](CNCC4CC4)[C@@H]([C@H](C)O)[C@H]3C(=O)N[C@H]3C[C@H]4C[C@@H]([C@@H]3C)C4(C)C)c2OC)cc(N(C)C)c1` [Compound 96], the values for the Ki on Bcl-2 and at Bcl-xL were 5 to 9 nM and 5000 to 10000 nM, respectively.
In the case of `C[C@@H]1[C@@H](NC(=O)[C@@H]2[C@H]([C@H](C)O)[C@H](CO)ON2Cc2cccc(-c3cc(C(=O)N[C@@H](Cc4ccccc4)CN(C)C)cc(N(C)C)c3)c2OCCN(C)C)C[C@H]2C[C@@H]1C2(C)C` [Compound 100], the figures for the Ki on Bcl-2 and at Bcl-xL were less than 1 nM and 1000 to 5000 nM, respectively.
As for `CNC(=O)c1cc(-c2cccc(CN3O[C@@H](CNCc4ccc(C(=O)O)cc4)[C@@H]([C@H](C)O)[C@H]3C(=O)N[C@H]3C[C@H]4C[C@@H]([C@@H]3C)C4(C)C)c2OC)cc(N(C)C)c1` [Compound 81], the results for the Ki on Bcl-2 and on Bcl-xL were greater than 9 nM and greater than 10000 nM, respectively.
For the compound `C[C@@H]1[C@@H](NC(=O)[C@@H]2[C@H]([C@H](C)O)[C@H](CO)ON2Cc2cccc(-c3cc(C(=O)N[C@@H](Cc4ccccc4)CN(C)C)cc(N(C)C)c3)c2OCCN2CCOCC2)C[C@H]2C[C@@H]1C2(C)C` [Compound 230], the Ki at Bcl-2 is less than 1 nM; at Bcl-xL, less than 1000 nM.
With `COc1c(CN2O[C@@H](CO)[C@@H]([C@H](C)O)[C@H]2C(=O)N[C@H]2C[C@H]3C[C@@H]([C@@H]2C)C3(C)C)cccc1-c1cc(C(C)=O)cc(C(=O)N[C@@H](Cc2ccccc2)CN(C)C)c1` [Compound 299], the Ki on Bcl-2 is less than 1 nM; on Bcl-xL, less than 1000 nM.
Turning to `CCOc1c(CN2O[C@@H](CO)[C@@H]([C@H](C)O)[C@H]2C(=O)N[C@H]2C[C@H]3C[C@@H]([C@@H]2C)C3(C)C)cccc1-c1cc(C(=O)N[C@@H](Cc2ccccc2)CN(C)C)cc(N(C)C)c1` [Compound 15], the inhibitory constant (Ki) on Bcl-2 is less than 1 nM; on Bcl-xL, less than 1000 nM.
Turning to `COc1c(-c2cc(C(=O)N[C@@H](Cc3ccccc3)CN(C)C)cc(N(C)C)c2)ccc(F)c1CN1O[C@@H](CN)[C@@H]([C@H](C)O)[C@H]1C(=O)N[C@H]1C[C@H]2C[C@@H]([C@@H]1C)C2(C)C` [Compound 127], the figures for the Ki on Bcl-2 and at Bcl-xL were less than 1 nM and less than 1000 nM, respectively.
As to `COc1c(CN2O[C@@H](CO)[C@@H]([C@H](C)O)[C@H]2C(=O)N[C@H]2C[C@H]3C[C@@H]([C@@H]2C)C3(C)C)cccc1-c1cc(C(=O)N[C@H](CN(C)C)CC(C)(C)C)cc(N(C)C)c1` [Compound 1], the results for the Ki at Bcl-2 and at Bcl-xL were less than 1 nM and less than 1000 nM, respectively.
In the same order, the values of `CCOc1c(CN2O[C@@H](CO)[C@@H]([C@H](C)O)[C@H]2C(=O)N[C@H]2C[C@H]3C[C@@H]([C@@H]2C)C3(C)C)cccc1-c1cc(C(=O)N[C@@H](CC(C)C)CN(C)C)cc(N(C)C)c1` [Compound 35] are less than 1 nM and less than 1000 nM.
As for `COc1c(-c2cc(C(=O)N[C@H](CN(C)C)[C@H](O)c3ccccc3)cc(N(C)C)c2)ccc(F)c1CN1O[C@@H](CO)[C@@H]([C@H](C)O)[C@H]1C(=O)N[C@H]1C[C@H]2C[C@@H]([C@@H]1C)C2(C)C` [Compound 143], the Ki at Bcl-2 was less than 1 nM; on Bcl-xL, less than 1000 nM.
Turning to `CNC(=O)c1cc(-c2cccc(CN3O[C@@H](CNC(=O)Nc4ccccc4)[C@@H]([C@H](C)O)[C@H]3C(=O)N[C@H]3C[C@H]4C[C@@H]([C@@H]3C)C4(C)C)c2OC)cc(N(C)C)c1` [Compound 79], the Ki at Bcl-2 is greater than 9 nM; on Bcl-xL, 5000 to 10000 nM.
Consider `CCOc1c(CN2O[C@@H](CO)[C@@H]([C@H](C)O)[C@H]2C(=O)N[C@H]2C[C@H]3C[C@@H]([C@@H]2C)C3(C)C)cccc1-c1cc(C(=O)N[C@H](CC(C)C)CN(C)C)cc(N(C)C)c1` [Compound 259], for which the inhibition constant Ki at Bcl-2 was less than 1 nM; at Bcl-xL it was 1000 to 5000 nM.
In the case of `CNC[C@H](Cc1ccccc1)NC(=O)c1cc(-c2cccc(CN3O[C@@H](CO)[C@@H]([C@H](C)O)[C@H]3C(=O)N[C@H]3C[C@H]4C[C@@H]([C@@H]3C)C4(C)C)c2OC)cc(N(C)C)c1` [Compound 165], the Ki on Bcl-2 was less than 1 nM; on Bcl-xL, less than 1000 nM.
Turning to `COc1c(CN2O[C@@H](CN)[C@@H]([C@H](C)O)[C@H]2C(=O)N[C@H]2C[C@H]3C[C@@H]([C@@H]2C)C3(C)C)cccc1-c1cc(C(=O)N(C)C)cc(N(C)C)c1` [Compound 69], the Ki was 5 to 9 nM at Bcl-2 and greater than 10000 nM on Bcl-xL.
As for `COc1c(CN2O[C@@H](CO)[C@@H]([C@H](C)O)[C@H]2C(=O)N[C@H]2C[C@H]3C[C@@H]([C@@H]2C)C3(C)C)cccc1-c1cc(C(=O)NCCc2ccccc2)cc(N(C)C)c1` [Compound 126], the Ki was less than 1 nM at Bcl-2 and less than 1000 nM at Bcl-xL.
Regarding `CNC(=O)c1cc(-c2cccc(CN3O[C@@H](CN(CC(C)C)CC(C)C)[C@@H]([C@H](C)O)[C@H]3C(=O)N[C@H]3C[C@H]4C[C@@H]([C@@H]3C)C4(C)C)c2OC)cc(N(C)C)c1` [Compound 98], the Ki on Bcl-2 was greater than 9 nM; on Bcl-xL, 5000 to 10000 nM.
With `CCOc1c(CN2O[C@@H](CO)[C@@H]([C@H](C)O)[C@H]2C(=O)N[C@H]2C[C@H]3C[C@@H]([C@@H]2C)C3(C)C)cccc1-c1cc(C(=O)N[C@@H](Cc2ccccc2)CN2CCCC2)cc(N(C)C)c1` [Compound 182], the Ki on Bcl-2 is less than 1 nM; at Bcl-xL, less than 1000 nM.
As to `COc1c(CN2O[C@@H](CNC(=O)CCN(C)C)[C@@H]([C@H](C)O)[C@H]2C(=O)N[C@H]2C[C@H]3C[C@@H]([C@@H]2C)C3(C)C)cccc1-c1cc(C(=O)N[C@H](CN(C)C)CC(C)(C)C)cc(N(C)C)c1` [Compound 115], the Ki at Bcl-2 is less than 1 nM; on Bcl-xL it was less than 1000 nM.
For `COc1c(CN2O[C@@H](CO)[C@@H]([C@H](C)O)[C@H]2C(=O)N[C@H]2C[C@H]3C[C@@H]([C@@H]2C)C3(C)C)cccc1-c1cc(Cl)cc(C(=O)N[C@@H](Cc2ccccc2)CN(C)C)c1` [Compound 255], the Ki at Bcl-2 was less than 1 nM; at Bcl-xL, less than 1000 nM.
Consider `COc1c(CN2O[C@@H](CO)[C@@H]([C@H](C)O)[C@H]2C(=O)N[C@H]2C[C@H]3C[C@@H]([C@@H]2C)C3(C)C)cccc1-c1cc2c(c(C(=O)N[C@H](CN(C)C)CC(C)(C)C)c1)OC(C)(C)C2` [Compound 196], for which the Ki at Bcl-2 is less than 1 nM; at Bcl-xL, less than 1000 nM.
With `CNC(=O)c1cc(-c2cccc(CN3O[C@@H](CNCC(C)C)[C@@H]([C@H](C)O)[C@H]3C(=O)N[C@H]3C[C@H]4C[C@@H]([C@@H]3C)C4(C)C)c2OC)cc(N(C)C)c1` [Compound 95], the Ki was 5 to 9 nM at Bcl-2 and 5000 to 10000 nM at Bcl-xL.
In the case of `CCNC[C@@H]1ON(Cc2cccc(-c3cc(C(=O)NC)cc(N(C)C)c3)c2OC)[C@H](C(=O)N[C@H]2C[C@H]3C[C@@H]([C@@H]2C)C3(C)C)[C@@H]1[C@H](C)O` [Compound 94], the Ki on Bcl-2 was 1 to 5 nM; at Bcl-xL, greater than 10000 nM.
Take `COc1c(CN2O[C@@H](CO)[C@@H]([C@H](C)O)[C@H]2C(=O)N[C@H]2C[C@H]3C[C@@H]([C@@H]2C)C3(C)C)cccc1-c1cc(C(=O)N2[C@H](CN(C)C)CC[C@@H]2c2ccccc2)cc(N(C)C)c1` [Compound 247]: the figures for the Ki at Bcl-2 and at Bcl-xL were less than 1 nM and less than 1000 nM, respectively.
Regarding `COc1c(CN2O[C@@H](CO)[C@@H]([C@H](C)O)[C@H]2C(=O)N[C@H]2C[C@H]3C[C@@H]([C@@H]2C)C3(C)C)cccc1-c1cc(C(=O)N[C@H](Cc2ccccc2)CN2CCN(C)CC2)cc(N(C)C)c1` [Compound 313], the Ki is less than 1 nM on Bcl-2 and less than 1000 nM on Bcl-xL.
For the compound `CNC(=O)c1cc(-c2cccc(CN3O[C@@H](CN)[C@@H]([C@H](C)O)[C@H]3C(=O)N[C@H]3C[C@H]4C[C@@H]([C@@H]3C)C4(C)C)c2OC)cc(N(C)C)c1` [Compound 70], the Ki is 1 to 5 nM at Bcl-2 and greater than 10000 nM at Bcl-xL.
In the same order, the values of `COc1c(CN2O[C@@H](CO)[C@@H]([C@H](C)O)[C@H]2C(=O)N[C@H]2C[C@H]3C[C@@H]([C@@H]2C)C3(C)C)cccc1-c1cc(CN)cc(C(=O)N[C@@H](Cc2ccccc2)CN(C)C)c1` [295 amine] are less than 1 nM and less than 1000 nM.
Consider `C[C@@H]1[C@@H](NC(=O)[C@@H]2[C@H]([C@H](C)O)[C@H](CN)ON2Cc2cccc(-c3cc(C(=O)N[C@@H](Cc4ccccc4)CN(C)C)cc(N(C)C)c3)c2F)C[C@H]2C[C@@H]1C2(C)C` [Compound 38], for which the Ki at Bcl-2 is less than 1 nM; at Bcl-xL it was greater than 10000 nM.
Consider `COc1c(CN2O[C@@H](CO)[C@@H]([C@H](C)O)[C@H]2C(=O)N[C@H]2C[C@H]3C[C@@H]([C@@H]2C)C3(C)C)cc(Cl)cc1-c1cc(C(=O)NCCc2ccccc2)cc(N(C)C)c1` [Compound 321], for which the Ki on Bcl-2 is greater than 9 nM; on Bcl-xL, 5000 to 10000 nM.
On to `COc1c(CN2O[C@@H](CO)[C@@H]([C@H](C)O)[C@H]2C(=O)N[C@H]2C[C@H]3CC([C@@H]2C)C3(C)C)cccc1-c1cc(C(=O)N[C@@H](Cc2ccccc2)CN(C)C)cc(N2CCC[C@@H]2CO)c1` [Compound 296], for which the Ki is less than 1 nM at Bcl-2 and less than 1000 nM on Bcl-xL.
Turning to `CNC(=O)c1cc(-c2cccc(CN3O[C@@H](CNCc4cccc(C(=O)O)c4)[C@@H]([C@H](C)O)[C@H]3C(=O)N[C@H]3C[C@H]4C[C@@H]([C@@H]3C)C4(C)C)c2OC)cc(N(C)C)c1` [Compound 84], the Ki was greater than 9 nM on Bcl-2 and greater than 10000 nM at Bcl-xL.
In the same order, the values of `COc1c(CN2O[C@@H](CN)[C@@H]([C@H](C)O)[C@H]2C(=O)N[C@H]2C[C@H]3C[C@@H]([C@@H]2C)C3(C)C)cccc1-c1cc(C(=O)NCCN(C)C)cc(N(C)C)c1` [Compound 63] are less than 1 nM and 5000 to 10000 nM.
